By Ki is commonly meant the equilibrium dissociation constant of an inhibitor or competing ligand from its target. One may read the Papp A→B as the apparent permeability from the apical to the basolateral side of a cell layer. Lower therefore signals slow passage. As a reminder, the half-life is the time needed for the level to fall by half in the phase considered. Higher therefore signals slow decline.

Converted amounts (≈) assume the structure as drawn. Where two headings read alike, the source gives them in different places.

Consider eleven molecules from patent US12486280B2, “CDK inhibitors and uses thereof” (California Institute of Technology, priority 2018, dated 2025).

The test system of series [1] is drug-sensitive cell lines of Table 2 (EFM-19, MDA-MB-453, T-47D, ZR-75-1, NCI-H441, OVTOKO, NCI-H1838). The experiment in a line: Cell Line Growth Retardation Assay, sensitive cohort. The class given is cell-based, human. The settings on record: for IC50: Homo sapiens, geometric mean over sensitive cohort, 6 days growth, read-out: AvgSensIC50; for Ther Window: average IC50 drug-resistant group divided by average IC50 drug-sensitive group. As to the method:
(§1) Cells were seeded at densities of 1,000-5,000 cells per well in 48-well tissue culture plates. After a 24 hours rest period, cells were treated with compound at 10 μM, 2 μM, 0.4 μM, 0.08 μM, 0.016 μM, and 0.0032 μM. A group of cells were treated with the vehicle in which the compound was prepared and served as a control. The cells were grown in the presence of compounds for 6 days and were counted on day 0 and day 6. A11 cell counting was performed using a Synentec Cellavista plate imager. […] Growth inhibition was calculated as a ratio of cell population doublings in the presence of compound versus the absence of compound. […] IC50 values for each compound (see Table 3; reported in μM) were calculated by fitting curves to data points from each dose-response assay using the Proc NLIN function in SAS for Windows version 9.2 (SAS Institute, Inc.).
(§2) These sensitive and resistant cohorts were interrogated for response to each compound, and IC50s were calculated for each cell line using the same technique described above. Average IC50s for the sensitive and resistant cohorts were calculated as geometric means of the group. “Therapeutic Window” for each compound was calculated by dividing the average IC50 for the drug-resistant group by the average IC50 for the drug-sensitive group.

Series [2] relates to drug-resistant cell lines of Table 2 (NCI-H1437, OV207, HCC1806, NCI-H2172). The experiment in a line: Cell Line Growth Retardation Assay, resistant cohort. In kind it is cell-based, human. The settings on record: Homo sapiens, […], geometric mean over resistant cohort; 6 days growth; read-out: AvgResIC50. How it is done:
as §1, §2

The next series addresses CDK6 (Homo sapiens (Human), UniProt Q00534). The experiment in a line: Cdk4 and 6 Enzymatic Inhibition Assay (radiometric 33PanQinase, Ki determination). In kind it is biochemical. As to the method:
(§3) 10 distinct concentrations were prepared, with a dilution endpoint of 6×10^−9 M in 100% DMSO. 100% DMSO was used as a control. 10 μL from each of the serial dilutions were aliquoted into separate wells of a 96-well plate and 90 μL of water were added to each of those wells. The plate was shaken thoroughly, and 5 μL from each of the plate's wells were transferred into wells of the assay plate. The final volume of wells in the assay plate was 50 μL. A11 compounds were tested at 10 assay concentrations in the range from 2×10^−6 M to 6×10^−11 M. The final DMSO concentration in the wells of the assay plate was 1% in all cases.
(§4) A radiometric protein kinase assay (33PanQinase® Activity Assay) was used for measuring the kinase activity of six protein kinases. A11 kinase assays were performed in 96-well FlashPlates™ from PerkinElmer (Boston, MA, USA). The assay for all protein kinases contained 70 mM HEPES-NaOH pH 7.5, 3 mM MgCl2, 3 mM MnCl2, 3 μM Na-orthovanadate, 1.2 mM DTT, 50 μg/mL PEG20000, ATP [γ-33P]-ATP (approx. 9×1005 cpm per well), protein kinase and substrate. The reaction cocktails were incubated at 30° C. for 60 minutes. The reaction was stopped with 50 μL of 2% (v/v) H3PO4, and plates were aspirated and washed two times with 200 μL 0.9% (w/v) NaCl. Incorporation of ^33Pi was determined with a microplate scintillation counter (Microbeta, Wallac).

A further series addresses CDK4 (Homo sapiens (Human), UniProt P11802). The series is described as above. The class given is biochemical. How it is done: as §3, §4
In a further series the target is hERG potassium channels (Homo sapiens (Human), UniProt Q12809). As to the kind of experiment: hERG Inhibition Assay (QPatch automated patch clamp, CHO cells). The settings on record: percent of control current.
Sequence of hERG potassium channels (Q12809 whole entry): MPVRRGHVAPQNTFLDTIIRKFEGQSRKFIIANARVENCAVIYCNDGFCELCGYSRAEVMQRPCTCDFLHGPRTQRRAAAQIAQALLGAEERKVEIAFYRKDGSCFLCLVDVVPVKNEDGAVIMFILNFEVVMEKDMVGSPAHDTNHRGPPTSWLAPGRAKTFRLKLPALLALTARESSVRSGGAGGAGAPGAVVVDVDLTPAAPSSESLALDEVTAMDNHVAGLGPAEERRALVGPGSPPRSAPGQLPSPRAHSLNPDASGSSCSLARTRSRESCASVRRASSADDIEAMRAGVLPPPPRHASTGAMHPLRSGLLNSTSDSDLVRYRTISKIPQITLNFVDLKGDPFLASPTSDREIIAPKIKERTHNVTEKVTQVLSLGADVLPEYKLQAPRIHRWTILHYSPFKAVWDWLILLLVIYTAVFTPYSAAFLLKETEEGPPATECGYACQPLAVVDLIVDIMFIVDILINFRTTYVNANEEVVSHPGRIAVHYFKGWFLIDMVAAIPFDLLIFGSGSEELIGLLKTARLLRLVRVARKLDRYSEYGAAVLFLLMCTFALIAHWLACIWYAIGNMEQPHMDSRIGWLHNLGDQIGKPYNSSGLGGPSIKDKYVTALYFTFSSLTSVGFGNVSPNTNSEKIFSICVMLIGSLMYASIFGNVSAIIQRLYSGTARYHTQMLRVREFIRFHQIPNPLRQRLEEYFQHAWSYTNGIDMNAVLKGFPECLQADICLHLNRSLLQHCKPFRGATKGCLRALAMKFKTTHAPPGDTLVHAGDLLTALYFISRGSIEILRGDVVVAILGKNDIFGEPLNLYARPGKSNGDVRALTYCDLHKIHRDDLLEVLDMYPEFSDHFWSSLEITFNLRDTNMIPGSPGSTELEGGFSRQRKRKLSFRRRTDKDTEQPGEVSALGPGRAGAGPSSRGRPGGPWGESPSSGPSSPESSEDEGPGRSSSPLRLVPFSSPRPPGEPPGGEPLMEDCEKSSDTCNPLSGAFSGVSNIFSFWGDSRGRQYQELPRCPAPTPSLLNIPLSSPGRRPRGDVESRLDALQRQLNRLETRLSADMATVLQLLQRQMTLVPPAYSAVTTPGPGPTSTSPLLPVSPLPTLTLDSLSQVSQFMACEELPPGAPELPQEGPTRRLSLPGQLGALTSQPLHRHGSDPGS
Series [3] can be described thus: Caco-2 Assay (Papp A to B). The settings on record: human, Caco-2, pH 7.4.
Series [4] has as its system CYP isozymes (IC50s averaged over the isozymes). The experiment in a line: CYP Enzymatic Inhibition Assay in human liver microsomes.
Series [5] can be described thus: Measurement of Compound Metabolic Stability in hepatocytes.
Series [6] in a line: Compound Solubility Assay (kinetic solubility). In kind it is physicochemical. The conditions noted are these: kinetic from dmso stock. How it is done: The relative kinetic solubility of each compound was determined at both low (1.2) and neutral (7.4) pH. Compounds were prepared at 10 mM stocks. […] Compounds were allowed to shake at room temperature for 24 hours in 50 mM phosphate buffer pH 7.4, or in SGF buffer pH 1.2 at 37° C. for 24 hours.

Sequence of CDK6 (Q00534 whole entry): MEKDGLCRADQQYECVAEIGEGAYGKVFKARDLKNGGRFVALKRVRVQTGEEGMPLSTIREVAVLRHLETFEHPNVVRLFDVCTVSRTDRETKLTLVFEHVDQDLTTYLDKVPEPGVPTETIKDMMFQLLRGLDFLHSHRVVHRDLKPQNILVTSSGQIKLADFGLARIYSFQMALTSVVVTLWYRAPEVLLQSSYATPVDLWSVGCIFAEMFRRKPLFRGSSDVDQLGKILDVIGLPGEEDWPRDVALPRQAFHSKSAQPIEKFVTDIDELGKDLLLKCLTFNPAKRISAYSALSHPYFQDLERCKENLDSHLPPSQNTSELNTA
Sequence of CDK6 (P24385 whole entry partner): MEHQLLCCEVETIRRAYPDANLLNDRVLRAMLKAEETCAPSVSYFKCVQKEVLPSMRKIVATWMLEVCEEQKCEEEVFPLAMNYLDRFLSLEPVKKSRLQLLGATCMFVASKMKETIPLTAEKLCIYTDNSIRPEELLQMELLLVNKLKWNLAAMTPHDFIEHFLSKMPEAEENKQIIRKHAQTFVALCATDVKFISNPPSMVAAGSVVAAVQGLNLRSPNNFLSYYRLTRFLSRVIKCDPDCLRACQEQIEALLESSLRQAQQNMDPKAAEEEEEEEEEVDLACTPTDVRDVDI
Sequence of CDK4 (P11802 whole entry): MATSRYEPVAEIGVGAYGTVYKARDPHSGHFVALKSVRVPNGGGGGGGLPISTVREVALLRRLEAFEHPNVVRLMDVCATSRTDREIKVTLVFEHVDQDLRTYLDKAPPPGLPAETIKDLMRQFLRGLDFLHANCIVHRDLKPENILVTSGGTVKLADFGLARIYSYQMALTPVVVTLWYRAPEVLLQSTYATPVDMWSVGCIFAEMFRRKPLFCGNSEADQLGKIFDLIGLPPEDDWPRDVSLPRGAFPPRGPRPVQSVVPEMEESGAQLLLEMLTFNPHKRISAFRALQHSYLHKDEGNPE
Sequence of CDK4 (P24385 whole entry partner): as the sequence (P24385 whole entry partner) above

Consider `CNCC[C@]1(C)CN(Cc2ccc(Nc3ncc(F)c(-c4cc(F)c5nc(C)n(C(C)C)c5c4)n3)nc2)CCO1` [Compound A5, (R)-5-fluoro-4-(4-fluoro-1-isopropyl-2-methyl-1H-benzo[d]imidazol-6-yl)-N-(5-((2-methyl-2-(2-(methylamino)ethyl)morpholino)methyl)pyridin-2-yl)pyrimidin-2-amine], for which the values for the IC50 in series [1] and in series [2] were 180 nM and 960 nM, respectively. Also, in series [1], the “Ther Window” value is 5.33. Also, the values for the Ki at CDK6 and at CDK4 were 6.26 nM and 1.21 nM, respectively. The molecule further came in with a hERG on hERG potassium channels of 14.76%.

For `Cc1nc2c(F)cc(-c3nc(Nc4ccc(CN5CCO[C@](C)(CCNCC(F)F)C5)cn4)ncc3F)cc2n1C(C)C` [Compound A6, (R)—N-(5-((2-(2-((2,2-difluoroethyl)amino)ethyl)-2-methylmorpholino)methyl)pyridin-2-yl)-5-fluoro-4-(4-fluoro-1-isopropyl-2-methyl-1H-benzo[d]imidazol-6-yl)pyrimidin-2-amine], the results for the IC50 in series [1] and in series [2] were 100 nM and 1000 nM, respectively. For the same molecule, the “Ther Window” value in [1] was determined as 10.42. In [3], the Papp A→B at 2 h, 2 μM amounted to 1.12 ×10⁻⁶ cm/s. The IC50 at 10 min in series [4] amounted to 14600 nM. The figures for the Ki at CDK6 and at CDK4 were 5.35 nM and 0.83 nM, respectively. The half-life at 1 μM in series [5] came to 0.237 h. Moreover, the hERG on hERG potassium channels is given as 32.76%.

In the case of `Cc1nc2c(F)cc(-c3nc(Nc4ccc(CN5CCO[C@](C)(CCNC(C)(C)C)C5)cn4)ncc3F)cc2n1C(C)C` [Compound A7, (R)—N-(5-((2-(2-(tert-butylamino)ethyl)-2-methylmorpholino)methyl)pyridin-2-yl)-5-fluoro-4-(4-fluoro-1-isopropyl-2-methyl-1H-benzo[d]imidazol-6-yl)pyrimidin-2-amine], the values for the IC50 in [1] and in [2] were 160 nM and 920 nM, respectively. Further, the “Ther Window” value in series [1] worked out at 5.75. This molecule came in with a Papp A→B at 2 h, 2 μM in series [3] of 0.04 ×10⁻⁶ cm/s. The inhibitory constant (Ki) on CDK6 is 4.24 nM; on CDK4, 1 nM. The molecule also gave a half-life at 1 μM in [5] of 1.24 h.

Consider `Cc1nc2c(F)cc(-c3nc(Nc4ccc(CN5CCO[C@](C)(CCN6CC(C)(O)C6)C5)cn4)ncc3F)cc2n1C(C)C` [Compound A10, (R)-1-(2-(4-((6-((5-fluoro-4-(4-fluoro-1-isopropyl-2-methyl-1H-benzo[d]imidazol-6-yl)pyrimidin-2-yl)amino)pyridin-3-yl)methyl)-2-methylmorpholin-2-yl)ethyl)-3-methylazetidin-3-ol], for which the IC50 worked out at 70 nM in series [1] and 970 nM in [2]. Also, the “Ther Window” value in [1] turned out to be 14.08. Moreover, in series [3], the Papp A→B at 2 h, 2 μM stood at 0.01 ×10⁻⁶ cm/s. For the same molecule, the Ki on CDK6 worked out at 5.52 nM; at CDK4, 0.96 nM. In [5], this molecule displayed a half-life at 1 μM of 1.11 h.

`Cc1nc2c(F)cc(-c3nc(Nc4ccc(CN5CCO[C@](C)(CCN6CC(F)C6)C5)cn4)ncc3F)cc2n1C(C)C` [Compound A13]: the IC50 in series [1] was found to be 70 nM; in series [2], 710 nM. For the same molecule, the “Ther Window” value in [1] is listed as 10.82. The Papp A→B at 2 h, 2 μM in series [3] was 1.02 ×10⁻⁶ cm/s. In [4], this molecule returned an IC50 at 10 min of 15200 nM. Besides, the Ki at CDK6 came to 4.79 nM; at CDK4, 0.92 nM. In [5], this molecule came in with a half-life at 1 μM of 0.148 h. For the same molecule, the hERG at hERG potassium channels was found to be 23.72%.

As to `Cc1nc2c(F)cc(-c3nc(Nc4ccc(CN5CCO[C@](C)(CCN)C5)cn4)ncc3F)cc2n1C(C)C` [Compound A21, (R)—N-(5-((2-(2-aminoethyl)-2-methylmorpholino)methyl)pyridin-2-yl)-5-fluoro-4-(4-fluoro-1-isopropyl-2-methyl-1H-benzo[d]imidazol-6-yl)pyrimidin-2-amine], in [1], the IC50 was determined as 150 nM and the “Ther Window” value is on record as 6.58. In addition, the IC50 in series [2] stood at 1000 nM. The half-life at 1 μM in [5] was found to be 1.61 h.

As for `Cc1nc2c(F)cc(-c3nc(Nc4ccc(CN5CCO[C@@]6(CCN(C)C6)C5)cn4)ncc3F)cc2n1C(C)C` [Compound A39, (R)-5-fluoro-4-(4-fluoro-1-isopropyl-2-methyl-1H-benzo[d]imidazol-6-yl)-N-(5-((2-methyl-6-oxa-2,9-diazaspiro[4.5]decan-9-yl)methyl)pyridin-2-yl)pyrimidin-2-amine], the IC50 in series [1] came to 300 nM; in [2], 980 nM. The “Ther Window” value in [1] amounted to 3.25. In addition, the Ki was determined as 6.62 nM at CDK6 and 1.83 nM on CDK4. Also, the hERG at hERG potassium channels was determined as 14.81%.

Take `Cc1nc2c(F)cc(-c3nc(Nc4ccc(CN5CCC56COC6)cn4)ncc3F)cc2n1C(C)C` [Compound A61, N-(5-((6-oxa-1-azaspiro[3.3]heptan-1-yl)methyl)pyridin-2-yl)-5-fluoro-4-(4-fluoro-1-isopropyl-2-methyl-1H-benzo[d]imidazol-6-yl)pyrimidin-2-amine]: the IC50 in [1] is 220 nM; in series [2], 940 nM. Also, the “Ther Window” value in series [1] is on record as 4.27. The Ki on CDK6 is 9.53 nM; at CDK4, 1.53 nM.

For the molecule `Cc1nc2c(F)cc(-c3nc(Nc4ccc(CN5CC6(CCC6)C5)cn4)ncc3F)cc2n1C(C)C` [Compound A63, N-(5-((2-azaspiro[3.3]heptan-2-yl)methyl)pyridin-2-yl)-5-fluoro-4-(4-fluoro-1-isopropyl-2-methyl-1H-benzo[d]imidazol-6-yl)pyrimidin-2-amine], the results for the IC50 in series [1] and in series [2] were 100 nM and 500 nM, respectively. In [1], the “Ther Window” value worked out at 5.03. Further, the Ki on CDK6 came out at 3.14 nM; on CDK4, 0.75 nM.

As for `Cc1nc2c(F)cc(-c3nc(Nc4ccc(CN5CC6(C5)CC(F)(F)C6)cn4)ncc3F)cc2n1C(C)C` [Compound A64, N-(5-((6,6-difluoro-2-azaspiro[3.3]heptan-2-yl)methyl)pyridin-2-yl)-5-fluoro-4-(4-fluoro-1-isopropyl-2-methyl-1H-benzo[d]imidazol-6-yl)pyrimidin-2-amine], the IC50 amounted to 150 nM in series [1] and 730 nM in [2]. Also, the “Ther Window” value in series [1] worked out at 4.87. Also, the values for the Ki at CDK6 and on CDK4 were 4.53 nM and 0.9 nM, respectively.

For the molecule `CC(=O)c1c(C)c2cnc(Nc3ccc(N4CCNCC4)cn3)nc2n(C2CCCC2)c1=O` [Palbociclib, reference compound], the “Ther Window” value in series [1] is reported as 9.37. In series [3], this molecule registered a Papp A→B at 2 h, 2 μM of 0.27 ×10⁻⁶ cm/s. Besides, in [4], the IC50 at 10 min amounted to 97700 nM. The solubility kinetic at 24 h was 29.6 µM (≈ 13.2 µg/mL) in series [6] (50 mM phosphate buffer, pH 7.4, aqueous buffer, read-out: KS7) and 196 µM (≈ 87.6 µg/mL) in series [6] (simulated gastric fluid, kinetic solubility, SGF buffer pH 1.2, 37° C., 24 hours, read-out: KS1). In addition, the half-life at 1 μM in series [5] is 0.915 h.
